Legend:
Assay in all cases: AUC of viability dose-response curve (% viability x log10 dose units); higher = less sensitive
Settings in all cases: 48 h
SEM cells = test system: SEM cells
Summary of the method: (§1)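 Over 48 h at 37°C, leukemia cells in 1536-well plates (500 or 1000 cells/well), adapted to each medium, received library compounds in DMSO at 11 threefold doses from 47 μM to 0.79 nM. CellTiter-Glo One luminescence, normalised per plate to DMSO and cell-free wells, was fitted by a four-parameter log-logistic function of log10 dose. The area under the curve was then integrated by trapezoidal rule, after scaling curves above full viability and removing those that failed quality control.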

P12-Ichikawa = test system: P12-Ichikawa
Summary of the method: as §1

NOMO1 = test system: NOMO1
Summary of the method: as §1

[1] = RPMI 5 mM glucose + 10% dialyzed FBS

SMILES | AUC of viability dose-response curve (SEM cells; HPLM + 10% dialyzed FBS) | AUC of viability dose-response curve (SEM cells; RPMI 5 mM glucose + 10% FBS) | AUC of viability dose-response curve (SEM cells; [1]) | AUC of viability dose-response curve (P12-Ichikawa; HPLM + 10% dialyzed FBS) | AUC of viability dose-response curve (P12-Ichikawa; RPMI 5 mM glucose + 10% FBS) | AUC of viability dose-response curve (P12-Ichikawa; [1]) | AUC of viability dose-response curve (NOMO1; HPLM + 10% dialyzed FBS) | AUC of viability dose-response curve (NOMO1; RPMI 5 mM glucose + 10% FBS) | AUC of viability dose-response curve (NOMO1; [1])
CN(C)CCN(Cc1ccc(Cl)cc1)c1ccccn1.Cl | 404 | 456 | 452 | 462 | 410 | 391 | 419 | 430 | 418
C[C@@H]1C[C@H]2[C@@H]3CC\C4=C\C(=O)\C=C/[C@]4(C)[C@@]3(Cl)[C@@H](O)C[C@]2(C)[C@@]1(OC(=O)C5=CC=CO5)C(=O)CCl | 245 | 236 | 222 | 313 | 265 | 234 | 442 | 454 | 451
Cc1ncc([N+](=O)[O-])n1CCO | 467 | 477 | 449 | 477 | 472 | 469 | 467 | 462 | 461
OC1=CC=C(C=C1)\C2=C\C(=O)C3=C(O2)C=C(O)C=C3O | 462 | 430 | 443 | 467 | 456 | 453 | 451 | 457 | 448
O=[N+]([O-])c1cnc(Sc2nnc(O)n2-c2ccc3c(c2)OCCO3)s1 | 341 | 342 | 331 | 390 | 356 | 337 | 376 | 353 | 375
Cc1[nH]c(/C=C2\C(=O)Nc3ccc([S+](=O)([O-])Cc4c(Cl)cccc4Cl)cc32)c(C)c1C(=O)N1CCC[C@@H]1CN1CCCC1 | 370 | 394 | 361 | 455 | 456 | 430 | 435 | 438 | 432
COc1cccc2c1C(=O)c1c(O)c3c(c(O)c1C2=O)C[C@@](O)(C(C)=O)C[C@@H]3O[C@H]1C[C@H](N)[C@H](O)[C@H](C)O1 | 192 | 190 | 209 | 274 | 264 | 263 | 265 | 262 | 259
COC1(C[S+]([O-])c2ccccc2)CCN(CCc2c[nH]c3ccc(F)cc23)CC1 (stereo unspecified) | 445 | 471 | 456 | 455 | 408 | 451 | 418 | 469 | 460
C=CCn1c(=O)c2cnc(Nc3ccc(N4CCN(C)CC4)cc3)nc2n1-c1cccc(C(C)(C)O)n1 | 299 | 301 | 270 | 336 | 362 | 354 | 310 | 338 | 316
O=c1[nH]cnc2c1ncn2[C@H]1CC[C@@H](CO)O1 | 460 | 409 | 409 | 468 | 463 | 444 | 447 | 420 | 431
CC(C)c1ccccc1Cc1cc(C(=O)Nc2ccc([S+](=O)([O-])c3ccccc3C(C)(C)C)cc2)c(O)c(O)c1O | 449 | 426 | 422 | 451 | 460 | 457 | 408 | 467 | 464
CN1C(=O)/C=C(/NCCN(CCO)CCCC2=CC=C(C=C2)[N+]([O-])=O)N(C)C1=O | 463 | 450 | 454 | 447 | 443 | 441 | 463 | 473 | 443
CC(C)C[C@H](NC(=O)[C@H](Cc1ccccc1)NC(=O)c1cnccn1)B(O)O | 138 | 147 | 129 | 173 | 173 | 171 | 182 | 171 | 181
CC(=O)[C@H]1CC[C@H]2[C@@H]3CCC4=CC(=O)CC[C@]4(C)[C@H]3CC[C@]12C | 432 | 470 | 456 | 465 | 455 | 465 | 454 | 447 | 433
C[N+](C)([O-])CCNc1ccc(NCC[N+](C)(C)[O-])c2c1C(=O)c1c(O)ccc(O)c1C2=O | 298 | 272 | 281 | 354 | 302 | 305 | 383 | 365 | 391
O=C1NC(O)CCN1[C@@H]1O[C@H](CO)[C@@H](O)[C@H]1O (stereo partly specified) | 463 | 443 | 465 | 456 | 437 | 467 | 435 | 459 | 457
COc1cc(-c2nn(C3CCC(N4CCN(C(C)=O)CC4)CC3)c3ncnc(N)c23)ccc1NC(=O)c1cc2ccccc2n1C (stereo unspecified) | 472 | 468 | 468 | 449 | 465 | 460 | 443 | 450 | 460
CC(C)(C)NC(=O)[C@@H]1CN(Cc2cccnc2)CCN1C[C@@H](O)C[C@@H](Cc1ccccc1)C(=O)N[C@H]1c2ccccc2C[C@H]1O.O=S(=O)(O)O | 439 | 455 | 454 | 463 | 463 | 455 | 472 | 461 | 442
C#C[C@]1(O)CC[C@H]2[C@@H]3CCc4cc(OC)ccc4[C@H]3CC[C@@]21C | 444 | 470 | 471 | 433 | 468 | 471 | 453 | 457 | 457

— the supplement of paper PMC11451515
